# PubChem BioAssay AID1963862 (Molecular Pharmacology Branch, DTP, NCI, 2024)
# Tested on: KRAS patient-derived spheroids with HUVEC/MSC, viability
# Experiment: Anticancer human tumor 941728-121-R-J1-PDC patient-derived lung adenocarcinoma cell line growth inhibition [KRAS2]
# Details: for IC50: curve of first compound; for viability, T/C: stronger effect = lower value
# Procedure, shortened: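 Combination screen of spheroid viability in tumor-cell co-cultures with endothelial (HUVEC) and mesenchymal stem cell stroma. Each agent was tested in half-log dilutions, topping at clinical Cmax or at 10 microM without a known Cmax.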
# [1] = second compound 0.1 µM, first compound 0.000316 µM
# [2] = second compound 0.1 µM, first compound 0.001 µM
# [3] = second compound 0.1 µM, first compound 0.00316 µM
# [4] = second compound 0.1 µM, first compound 0.01 µM
# [5] = second compound 0.1 µM, first compound 0.0316 µM
# [6] = second compound 0.316 µM, first compound 0.000316 µM
# [7] = second compound 0.316 µM, first compound 0.001 µM
# [8] = second compound 0.316 µM, first compound 0.00316 µM
# [9] = second compound 0.316 µM, first compound 0.01 µM
# [10] = second compound 0.316 µM, first compound 0.0316 µM
# [11] = second compound 1 µM, first compound 0.000316 µM
# [12] = second compound 1 µM, first compound 0.001 µM
# [13] = second compound 1 µM, first compound 0.00316 µM
# [14] = second compound 1 µM, first compound 0.01 µM
# [15] = second compound 1 µM, first compound 0.0316 µM
# [16] = second compound 3.16 µM, first compound 0.000316 µM
# [17] = second compound 3.16 µM, first compound 0.001 µM
# [18] = second compound 3.16 µM, first compound 0.00316 µM
# [19] = second compound 3.16 µM, first compound 0.01 µM
# [20] = second compound 3.16 µM, first compound 0.0316 µM
# [21] = second compound 10 µM, first compound 0.000316 µM
# [22] = second compound 10 µM, first compound 0.001 µM
# [23] = second compound 10 µM, first compound 0.00316 µM
# [24] = second compound 10 µM, first compound 0.01 µM
# [25] = second compound 10 µM, first compound 0.0316 µM
# [26] = second compound 0.1 µM, first compound 0.1 µM
# [27] = second compound 0.316 µM, first compound 0.1 µM
# [28] = second compound 1 µM, first compound 0.1 µM
# [29] = second compound 3.16 µM, first compound 0.1 µM
# [30] = second compound 10 µM, first compound 0.1 µM
# 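Further: spheroids exposed to agents for seven days before readout.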
structure (smiles),measurement,setting,value
CC(=O)Nc1cccc(-n2c(=O)n(C3CC3)c(=O)c3c(Nc4ccc(I)cc4F)n(C)c(=O)c(C)c32)c1 + COc1cc2nc(C)nc(NC(C)c3cc(N)cc(C(F)(F)F)c3)c2cc1OC1CCOC1,IC50,second compound 0.1 µM,0.129 nM
same,IC50,second compound 0.316 µM,< 0.1 nM
same,IC50,second compound 1 µM,< 0.1 nM
same,IC50,second compound 3.16 µM,< 0.1 nM
same,IC50,second compound 10 µM,< 0.1 nM
same,"viability, T/C","second compound 0.1 µM, first compound 0.0001 µM",51.3%
same,"viability, T/C",[1],47.6%
same,"viability, T/C",[2],39.7%
same,"viability, T/C",[3],39.5%
same,"viability, T/C",[4],39.4%
same,"viability, T/C",[5],29.4%
same,"viability, T/C","second compound 0.316 µM, first compound 0.0001 µM",44.3%
same,"viability, T/C",[6],40.5%
same,"viability, T/C",[7],40%
same,"viability, T/C",[8],35.8%
same,"viability, T/C",[9],36.3%
same,"viability, T/C",[10],29.9%
same,"viability, T/C","second compound 1 µM, first compound 0.0001 µM",41.1%
same,"viability, T/C",[11],40.8%
same,"viability, T/C",[12],38.1%
same,"viability, T/C",[13],30.6%
same,"viability, T/C",[14],31.1%
same,"viability, T/C",[15],25.7%
same,"viability, T/C","second compound 3.16 µM, first compound 0.0001 µM",32%
same,"viability, T/C",[16],29%
same,"viability, T/C",[17],24.6%
same,"viability, T/C",[18],18.8%
same,"viability, T/C",[19],21.8%
same,"viability, T/C",[20],17.7%
same,"viability, T/C","second compound 10 µM, first compound 0.0001 µM",6.11%
same,"viability, T/C",[21],3.95%
same,"viability, T/C",[22],3.66%
same,"viability, T/C",[23],2.67%
same,"viability, T/C",[24],2.71%
same,"viability, T/C",[25],2.71%
CN(C)C/C=C/C(=O)Nc1cc2c(Nc3ccc(F)c(Cl)c3)ncnc2cc1O[C@H]1CCOC1 + COc1cc2nc(C)nc(NC(C)c3cc(N)cc(C(F)(F)F)c3)c2cc1OC1CCOC1,IC50,second compound 0.1 µM,0.885 nM
same,IC50,second compound 0.316 µM,< 0.316 nM
same,IC50,second compound 1 µM,< 0.316 nM
same,IC50,second compound 3.16 µM,< 0.316 nM
same,IC50,second compound 10 µM,< 0.316 nM
same,"viability, T/C",[1],60.5%
same,"viability, T/C",[2],50.3%
same,"viability, T/C",[3],42.9%
same,"viability, T/C",[4],44.4%
same,"viability, T/C",[5],43.4%
same,"viability, T/C",[26],49.3%
same,"viability, T/C",[6],37.2%
same,"viability, T/C",[7],32.5%
same,"viability, T/C",[8],32.5%
same,"viability, T/C",[9],30.5%
same,"viability, T/C",[10],31.1%
same,"viability, T/C",[27],36.4%
same,"viability, T/C",[11],40.6%
same,"viability, T/C",[12],34.3%
same,"viability, T/C",[13],28.9%
same,"viability, T/C",[14],34.3%
same,"viability, T/C",[15],33.3%
same,"viability, T/C",[28],34.4%
same,"viability, T/C",[16],20.1%
same,"viability, T/C",[17],20.4%
same,"viability, T/C",[18],18.3%
same,"viability, T/C",[19],15.4%
same,"viability, T/C",[20],14.8%
same,"viability, T/C",[29],15.8%
same,"viability, T/C",[21],19.4%
same,"viability, T/C",[22],15.2%
same,"viability, T/C",[23],16%
same,"viability, T/C",[24],14.6%
same,"viability, T/C",[25],14.7%
same,"viability, T/C",[30],16.4%
COC(=O)c1ccc2c(C(=Nc3ccc(N(C)C(=O)CN4CCN(C)CC4)cc3)c3ccccc3)c(O)[nH]c2c1 + COc1cc2nc(C)nc(NC(C)c3cc(N)cc(C(F)(F)F)c3)c2cc1OC1CCOC1,IC50,second compound 0.1 µM,10000 nM
same,IC50,second compound 0.316 µM,< 31.6 nM
same,IC50,second compound 1 µM,< 31.6 nM
same,IC50,second compound 3.16 µM,< 31.6 nM
same,IC50,second compound 10 µM,< 31.6 nM
same,"viability, T/C",[5],108%
same,"viability, T/C",[26],45.3%
same,"viability, T/C","second compound 0.1 µM, first compound 0.316 µM",46.4%
same,"viability, T/C","second compound 0.1 µM, first compound 1 µM",70.2%
same,"viability, T/C","second compound 0.1 µM, first compound 3.16 µM",46.2%
same,"viability, T/C","second compound 0.1 µM, first compound 10 µM",48.5%
same,"viability, T/C",[10],45.5%
same,"viability, T/C",[27],43.4%
same,"viability, T/C","second compound 0.316 µM, first compound 0.316 µM",40.5%
same,"viability, T/C","second compound 0.316 µM, first compound 1 µM",49.7%
same,"viability, T/C","second compound 0.316 µM, first compound 3.16 µM",42.7%
same,"viability, T/C","second compound 0.316 µM, first compound 10 µM",42.9%
same,"viability, T/C",[15],42.4%
same,"viability, T/C",[28],40.9%
same,"viability, T/C","second compound 1 µM, first compound 0.316 µM",37%
same,"viability, T/C","second compound 1 µM, first compound 1 µM",41.6%
same,"viability, T/C","second compound 1 µM, first compound 3.16 µM",35.1%
same,"viability, T/C","second compound 1 µM, first compound 10 µM",42.2%
same,"viability, T/C",[20],43.5%
same,"viability, T/C",[29],36.7%
same,"viability, T/C","second compound 3.16 µM, first compound 0.316 µM",41.7%
same,"viability, T/C","second compound 3.16 µM, first compound 1 µM",42.6%
same,"viability, T/C","second compound 3.16 µM, first compound 3.16 µM",22.6%
same,"viability, T/C","second compound 3.16 µM, first compound 10 µM",0.49%
same,"viability, T/C",[25],26.2%
same,"viability, T/C",[30],21.7%
same,"viability, T/C","second compound 10 µM, first compound 0.316 µM",21.1%
same,"viability, T/C","second compound 10 µM, first compound 1 µM",16.9%
same,"viability, T/C","second compound 10 µM, first compound 3.16 µM",0.62%
same,"viability, T/C","second compound 10 µM, first compound 10 µM",1.04%
